# Data published in patent US20260207450A1, “ANTI-DANDRUFF COMPOSITIONS” (Firmenich SA, priority 2022, published 2026).
# Key:
# [1] = system: Malassezia furfur DSM 6170; experiment: MIC assay on Malassezia furfur DSM 6170 (resazurin); format: cell-based; settings: Malassezia furfur, DSM6170; 30° C., 48 h aerobically; dilutions 29 to 10000 ppm
# Protocol: The MIC assay for Malassezia furfur DSM 6170 was modified based on the method in Journal of Clinical Microbiology 2017, Vol 55: 1883-1893. In brief, working culture was prepared from stock cultures stored at −80° C. to obtain a cell suspension as the inoculum. Serial dilutions of samples, 29 to 10000 ppm, were tested to determine the MIC values for growth of Malassezia furfur DSM 6170 after at 30° C. for 48 h aerobically. Resazurin was used as growth indicator.
# (§1) A total of 26 perfumery materials were examined for an inhibition effect on Malassezia furfur and Staphylococcus aureus.
# [2] = system: M. globosa ATCC MYA-4612; experiment: Disc-diffusion assay, perfumery materials in DMSO, M. globosa; format: cell-based, Malassezia globosa; settings: Malassezia globosa, 144 h
# Protocol: (§2) Anti-Malassezia effect of perfumery materials in solvent in DMSO was determined using disc-diffusion assay, based on the method of J Mycol Infect 2018: 23: 91-98. In brief, working cultures of Malassezia strains were prepared from −80 C stock culture on mDixon agar plate (for M. furfur DSM 6170) or mLN agar plate (for M. restricta ATCC MYA-4611 and M. globosa ATCC MYA-4612), and cells were suspended in 0.9% saline, and spread onto mDixon or mLN agar surface to prepare lawn plate. Test samples solutions are prepared in DMSO to final concentrations of 0.2%, 1% or 2%. Discs (Whatman, 6 mm in diameter) were placed on inoculated agar plates with each Malassezia strains respectively, including M. furfur DSM 6170, M. restricta ATCC MYA-4611, and M. globosa ATCC MYA-4612. Aliquots (20 μL) of each sample solution was added to each disc. Agar plates were incubated at 30° C. for 3 days for M. furfur DSM 6170, and 6 days for M. restricta ATCC MYA-4611, and M. globosa ATCC MYA-4612. After incubation, diameters of the clear inhibition zones around the discs were measured. Inhibition zone greater than 6 mm are regarded as having anti-Malassezia effect.
# [3] = system: Staphylococcus aureus ATCC 6538; experiment: MIC assay on Staphylococcus aureus ATCC 6538; format: cell-based; settings: Staphylococcus aureus, ATCC6538; TSB, 37° C., 24 h aerobically; dilutions 29 to 10000 ppm; read-out: MIC (ppm) S. aureus
# Protocol: MIC assay for Staphylococcus aureus ATCC 6538 is based on Clinical Laboratory Standard Institute: CLSI/NCCLS M07-A8. Cell suspension of working cultures of S. aureus was prepared following the instructions of culture provider ATCC, USA.
# as §1
# [4] = system: M. restricta ATCC MYA-4611; experiment: Disc-diffusion assay, perfumery materials in DMSO, M. restricta; format: cell-based, Malassezia restricta; settings: Malassezia restricta, 144 h
# Protocol: as §2
# [5] = system: M. restricta; experiment: Disc-diffusion assay, combinations with piroctone olamine (PO) in DMSO, M. restricta; format: cell-based, Malassezia restricta; settings: 4 days, ratio greater than 1.0 = boosting effect
# Protocol: Anti-Malassezia effect of combinations of PO and perfumery materials in solvent DMSO against M. restricta was determined using disc-diffusion assay as described above. Aliquots (20 μL) of each sample solution was added to each disc. Agar plates were incubated at 30° C. for 4 days. After incubation, diameters of the clear inhibition zones around the discs were measured. Ratio of inhibition zone diameter of each combination to that of PO only were calculated. […] Anti-Malassezia effect of combinations of PO and perfumery raw materials mixtures in solvent DMSO was determined using disc-diffusion assay, as described above. Aliquots (20 μL) of each sample solution was added to each disc. Agar plates were incubated at 30° C. for 4 days. After incubation, diameters of the clear inhibition zones around the discs were measured. Ratio of inhibition zone diameter of each combination to that of PO only were calculated.
# [6] = system: M. restricta; experiment: Disc-diffusion assay, additional perfumery materials in DMSO, M. restricta, 4 days; format: cell-based, Malassezia restricta; settings: Malassezia restricta, 96 h; Table 20; 0.5% in DMSO, 4 days; read-out: Inhibition zone diameter (mm) on M. restricta
# Protocol: (§3) Anti-Malassezia effect of additional perfumery materials in DMSO was determined using disc-diffusion assay as described previously. Test samples solutions were prepared in DMSO to final concentrations of 0.5%, 1% or 2%. Discs (Whatman, 6 mm in diameter) were placed on inoculated agar plates. Aliquots (20 μL) of each sample solution was added to each disc. Agar plates were incubated at 30° C. for 4 days. After incubation, diameters of the clear inhibition zones around the discs were recorded
# as §3, with “above.” for “previously.”, “recorded.” for “recorded”
# Anti-Malassezia effect of additional perfumery materials in solvent in DMSO was determined using disc-diffusion assay, as described previously. Test samples solutions are prepared in DMSO to final concentrations of 0.5%. Discs (Whatman, 6 mm in diameter) were placed on inoculated agar plates. Aliquots (20 μL) of each sample solution was added to each disc. Agar plates were incubated at 30° C. for 4 days. After incubation, diameters of the clear inhibition zones around the discs were measured.
MIC [1],MIC [3],SMILES,zone of inhibition at 1 % [2],zone of inhibition at 0.2 % [4],zone of inhibition at 1 % [4],zone of inhibition at 0.2 % [2],also measured
222 µg/mL,530 µg/mL,"COc1ccc(CC(C)C=O)cc1 (racemic) [para-anisyl propanal, (+/−)-3-(4-methoxyphenyl)-2-methylpropanal]",11.6 mm,6.6 mm,14.3 mm,,Ratio of inhibition zone diameter (0.5% PRM + 0.1% PO) to 0.1% PO [5]: 2.0; Ratio of inhibition zone diameter (1% PRM + 0.35% PO) to 0.35% PO [5]: 1.5
500 µg/mL,370 µg/mL,"CCCCCCCCCCO [Mix 1-decanol, 1-decanol]",15.9 mm,8.5 mm,10 mm,6.7 mm,zone of inhibition at 2 % [2]: 16.4 mm; zone of inhibition at 2 % [4]: 25 mm
222 µg/mL,330 µg/mL,"CCCCC[C@H]1C(=O)CC[C@@H]1CC(=O)OC (racemic) [methyl dihydrojasmonate, methyl 2-((1 RS,2RS)-3-oxo-2-pentylcyclopentyl)acetate]",,6.1 mm,,,
,,CCCCCCCC(=O)O [octanoic acid],,,,,Ratio of inhibition zone diameter (1% PRM + 0.35% PO) to 0.35% PO [5]: 1.1
,,"C=CCCCCCCCCC=O [Mix 10-undecenal, 10-undecenal]",14.1 mm,6.5 mm,12.7 mm,7.1 mm,
,,CCCCCCCCC(=O)O [nonanoic acid],,,,,Ratio of inhibition zone diameter (0.5% PRM + 0.1% PO) to 0.1% PO [5]: 1.1; Ratio of inhibition zone diameter (1% PRM + 0.35% PO) to 0.35% PO [5]: 1.2
,,"CCCCCCC#CC(=O)OC [methyl octine carbonate, methyl 2-nonynoate]",10.3 mm,6.4 mm,6.7 mm,,
1300 µg/mL,387 µg/mL,"CC(C)c1cccc(C(C)CC=O)c1 (racemic) [floral butanal, (+/−)-3-(3-isopropylphenyl)butanal]",,,8.2 mm,,zone of inhibition at 0.5 % [6]: 7.5 mm
,,CCCCCCCCCC(=O)O [decanoic acid],,,,,Ratio of inhibition zone diameter (1% PRM + 0.35% PO) to 0.35% PO [5]: 1.1
,,"CC(C)(C)c1ccc(CCC=O)cc1 [cyclamen propanal, 3-(4-tert-butylphenyl)propanal]",,6.6 mm,,6.3 mm,zone of inhibition at 2 % [2]: 7.9 mm; zone of inhibition at 2 % [4]: 12.3 mm
,933 µg/mL,"CC(C=O)Cc1ccc(C(C)C)cc1 (racemic) [cyclamen aldehyde, (+/−)-3-(4-isopropylphenyl)-2-methylpropanal]",6.7 mm,,8.2 mm,,zone of inhibition at 0.5 % [6]: 7.5 mm
,,"CCOC(=O)C(C)CC (racemic) [ethyl 2-methyl butanoate, (+/−)-ethyl 2-methylbutanoate]",6.6 mm,,,,
,325 µg/mL,"CC(C=O)Cc1ccc(C(C)(C)C)cc1 (racemic) [lilial, (+/−)-2-methyl-3-[4-(2-methyl-2-propanyl)phenyl]propanal]",7.4 mm,,,,
333 µg/mL,293 µg/mL,"CCCCCCC1CCCC(=O)O1 (centres unmarked) [delta-undecalactone, 6-hexyltetrahydro-2H-pyran-2-one]",,6.1 mm,,6.4 mm,
,22 µg/mL,"CCCCCCCCCCCCO [Mix 1-dodecanol, 1-dodecanol]",10.2 mm,6.8 mm,11.5 mm,8.7 mm,

SMILES,MIC [1],MIC [3],zone of inhibition at 1 % [2],zone of inhibition at 0.2 % [4],zone of inhibition at 1 % [4],zone of inhibition at 0.2 % [2],also measured
c1ccc2[nH]ccc2c1 [indole],259 µg/mL,693 µg/mL,15.2 mm,,,6.3 mm,
"COc1ccc(C=O)cc1 [para-anisaldehyde, 4-methoxybenzaldehyde]",500 µg/mL,,,,,,zone of inhibition at 2 % [4]: 13.4 mm
"CCOc1cc(C=O)ccc1O [ethyl vanillin, 3-ethoxy-4-hydroxybenzaldehyde]",500 µg/mL,2670 µg/mL,,,,,zone of inhibition at 2 % [4]: 19.5 mm
